Laboratory results as given in patent US20260166159A1, “KRAS G12D DEGRADATION AGENT, AND PREPARATION METHOD AND USE THEREFOR” (LEADINGTAC PHARMACEUTICAL (SHAOXING) CO., LTD., priority 2022, published 2026).
pIC50: −log10 of the molar value.

What was measured:
phosphorylated ERK = experiment: KRAS G12D-mediated phosphorylated ERK inhibition assay (AlphaLISA), A427; type: cell-based; details: Homo sapiens, A-427; A427 cells; class symbols; read-out: pERK (A427) IC50
Procedure: The relative amounts of phosphorylated ERK and total ERK in the samples were separately determined according to the test methods provided in the instructions of the AlphaLISA SureFire Ultra p-ERK 1/2 (Thr202/Tyr204) kit (PerkinElmer) and the AlphaLISA SureFire Ultra TotalERK 1/2 kit (PerkinElmer).
The experimental procedures for the assay of the phosphorylated ERK and total ERK were as follows: 10 μL of each sample was added to a 384-well plate (Greiner), and 5 μL of the prepared Acceptor Beads (PerkinElmer) mixed solution (containing 50× Acceptor Beads 615, Activation Buffer, and equal volumes of Reaction Buffer 1 and Reaction Buffer 2) was added to each well; and the plate was incubated at room temperature for 2 h. Then 5 μL of 1× Donor Beads (PerkinElmer) diluted with Dilution Buffer was added to each well, and the plate was incubated at room temperature overnight. After the incubation was completed, AlphaLISA signal values for the phosphorylated ERK and total ERK were separately measured on an EnVision microplate reader (PerkinElmer) in the AlphaScreen standard mode. The following formula was adopted: phosphorylated ERK correction value=phosphorylated ERK AlphaLISA signal value/total ERK AlphaLISA signal value. The relative ratio of the phosphorylated ERK for each sample was calculated. The percentage inhibition rates of the compounds on the phosphorylated ERK at each concentration were calculated by comparing the relative value of the phosphorylated ERK with that of the DMSO control well. Then non-linear curve fittings for logarithmic concentration-inhibition rate were performed by the GraphPad Prism 8 analysis software, and the IC50 values of the compounds on the inhibition of the phosphorylated ERK were obtained (Table 2).

[1] = test system: KRAS G12D mutant human gastric cancer cell AGS; experiment: 3D cell proliferation inhibition assay, AGS; type: cell-based; details: 168 h, 7 days, CTG, class symbols
Outline: (§1)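 IC50 values derive from nonlinear fits of log dose against percent inhibition of 7-day 3D proliferation. Readout: CTG luminescence. Plating density: 5×10^2 cells/well in low-adsorption plates. Dosing: 10000–0.026 nM final, 0.2% DMSO.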

[2] = biological target: T1, Human KRAS G12D 6His-tagged (Homo sapiens, UniProt P01116, G12D); experiment: KRAS-G12D/GTP binding assay (HTRF); details: class symbols
T1 construct: purchased PerkinElmer
Outline: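 HTRF kit format: 6His-tagged KRAS G12D incubated with compound (final 0.02-5000 nM, 0.5% DMSO), anti-6His Eu cryptate antibody and GTP Red reagent for 1 h at 25° C. 665/620 nm ratio versus control gave inhibition rates; IC50 by nonlinear fit.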

[3] = test system: KRAS G12D mutant human lung cancer cell A427; experiment: 3D cell proliferation inhibition assay, A427; type: cell-based; details: A-427, 168 h, A427, 7 days, CTG, class symbols
Outline: as §1

T1 sequence (P01116 1-188 isoform P01116-2 G12D): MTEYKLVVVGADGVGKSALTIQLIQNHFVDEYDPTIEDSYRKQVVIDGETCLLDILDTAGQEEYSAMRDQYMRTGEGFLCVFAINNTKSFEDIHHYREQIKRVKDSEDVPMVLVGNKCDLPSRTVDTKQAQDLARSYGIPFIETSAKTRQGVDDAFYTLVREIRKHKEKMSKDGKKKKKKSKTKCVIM

Row | Structure (SMILES) | pIC50 (phosphorylated ERK) | pIC50 [1] | pIC50 [2] | pIC50 [3]
1 | C#Cc1c(F)ccc2cc(O)cc(-c3ncc4c(N5CC6CCC(C5)N6)nc(OCC5(CN6CCN(CC7CCC8(CC7)CCN(C(=O)c7ccc(Cl)c(N9CCC(=O)N(C)C9=O)c7)CC8)CC6)CC5)nc4c3F)c12 [Example 17, 1-(5-(9-((4-((1-(((4-(3,8-diazabicyclo[3.2.1]octan-3-yl)-7-(8-ethynyl-7-fluoro-3-hydroxynaphthalen-1-yl)-8-fluoropyrido[4,3-d]pyrimidin-2-yl)oxy)methyl)cyclopropyl)methyl)piperazin-1-yl)methyl)-3-azaspiro[5.5]undecane-3-carbonyl)-2-chlorophenyl)-3-methyldihydropyrimidine-2,4(1H,3H)-dione] | ≥ 7.30 | 7.00 to 7.30 | ≥ 7.30 | 7.00 to 7.30
2 | C#Cc1c(F)ccc2cc(O)cc(-c3ncc4c(N5CC6CCC(C5)N6)nc(OCC5(CN6CCN(CC7CCC8(CC7)CCN(C(=O)c7ccc(Cl)c(N9CCC(=O)NC9=O)c7)CC8)CC6)CC5)nc4c3F)c12 [Example 6, 1-(5-(9-((4-((1-(((4-(3,8-diazabicyclo[3.2.1]octan-3-yl)-7-(8-ethynyl-7-fluoro-3-hydroxynaphthalen-1-yl)-8-fluoropyrido[4,3-d]pyrimidin-2-yl)oxy)methyl)cyclopropyl)methyl)piperazin-1-yl)methyl)-3-azaspiro[5.5]undecane-3-carbonyl)-2-chlorophenyl)dihydropyrimidine-2,4(1H,3H)-dione] | ≥ 7.30 | ≥ 7.30 | ≥ 7.30 | ≥ 7.30
3 | C#Cc1c(F)ccc2cc(O)cc(-c3ncc4c(N5CC6CCC(C5)N6)nc(OCC5(CN6CCN(CC7CCC8(CC7)CCN(C(=O)c7ccc(Br)c(N9CCC(=O)NC9=O)c7)CC8)CC6)CC5)nc4c3F)c12 [Example 29, 1-(5-(9-((4-((1-(((4-(3,8-diazabicyclo[3.2.1]octan-3-yl)-7-(8-ethynyl-7-fluoro-3-hydroxynaphthalen-1-yl)-8-fluoropyrido[4,3-d]pyrimidin-2-yl)oxy)methyl)cyclopropyl)methyl)piperazin-1-yl)methyl)-3-azaspiro[5.5]undecane-3-carbonyl)-2-bromophenyl)dihydropyrimidine-2,4(1H,3H)-dione] | ≥ 7.30 | ≥ 7.30 | ≥ 7.30 | ≥ 7.30
4 | CCc1c(F)ccc2cc(O)cc(-c3ncc4c(N5CC6CCC(C5)N6)nc(OCC5(CN6CCN(CC7CCC8(CC7)CCN(C(=O)c7ccc(Cl)c(N9CCC(=O)NC9=O)c7)CC8)CC6)CC5)nc4c3F)c12 [Example 30, 1-(5-(9-((4-((1-(((4-(3,8-diazabicyclo[3.2.1]octan-3-yl)-7-(8-ethyl-7-fluoro-3-hydroxynaphthalen-1-yl)-8-fluoropyrido[4,3-d]pyrimidin-2-yl)oxy)methyl)cyclopropyl)methyl)piperazin-1-yl)methyl)-3-azaspiro[5.5]undecane-3-carbonyl)-2-chlorophenyl)dihydropyrimidine-2,4(1H,3H)-dione] | ≥ 7.30 | ≥ 7.30 | 7.00 to 7.30 | ≥ 7.30
5 | C#Cc1c(F)ccc2cc(O)cc(-c3ncc4c(N5CC6CCC(C5)N6)nc(OCC5(CN6CCN(CCCCC7CCC8(CC7)CCN(C(=O)c7ccc(Cl)c(N9CCC(=O)NC9=O)c7)CC8)CC6)CC5)nc4c3F)c12 [Example 31, 1-(5-(9-(4-(4-((1-(((4-(3,8-diazabicyclo[3.2.1]octan-3-yl)-7-(8-ethynyl-7-fluoro-3-hydroxynaphthalen-1-yl)-8-fluoropyrido[4,3-d]pyrimidin-2-yl)oxy)methyl)cyclopropyl)methyl)piperazin-1-yl)butyl)-3-azaspiro[5.5]undecane-3-carbonyl)-2-chlorophenyl)dihydropyrimidine-2,4(1H,3H)-dione] | ≥ 7.30 | ≥ 7.30 | ≥ 7.30 | ≥ 7.30
6 | CCc1c(F)ccc2cc(O)cc(-c3ncc4c(N5CC6CCC(C5)N6)nc(OCC5(CN6CCN(CC7CCC8(CC7)CCN(C(=O)c7ccc(OC)c(N9CCC(=O)NC9=O)c7)CC8)CC6)CC5)nc4c3F)c12 [Example 15, 1-(5-(9-((4-((1-(((4-(3,8-diazabicyclo[3.2.1]octan-3-yl)-7-(8-ethyl-7-fluoro-3-hydroxynaphthalen-1-yl)-8-fluoropyrido[4,3-d]pyrimidin-2-yl)oxy)methyl)cyclopropyl)methyl)piperazin-1-yl)methyl)-3-azaspiro[5.5]undecane-3-carbonyl)-2-methoxyphenyl)dihydropyrimidine-2,4(1H,3H)-dione] | ≥ 7.30 | ≥ 7.30 | ≥ 7.30 | ≥ 7.30
7 | C#Cc1c(F)ccc2cc(O)cc(-c3ncc4c(N5CC6CCC(C5)N6)nc(OCC56CC(CN7CCN(CC8CCC9(CC8)CCN(C(=O)c8ccc(Cl)c(N%10CCC(=O)NC%10=O)c8)CC9)CC7)(C5)C6)nc4c3F)c12 [Example 33, 1-(5-(9-((4-((3-(((4-(3,8-diazabicyclo[3.2.1]octan-3-yl)-7-(8-ethynyl-7-fluoro-3-hydroxynaphthalen-1-yl)-8-fluoropyrido[4,3-d]pyrimidin-2-yl)oxy)methyl)bicyclo[1.1.1]pentan-1-yl)methyl)piperazin-1-yl)methyl)-3-azaspiro[5.5]undecane-3-carbonyl)-2-chlorophenyl)dihydropyrimidine-2,4(1H,3H)-dione] | ≥ 7.30 | ≥ 7.30 | 6.30 to 7.00 | 6.30 to 7.00
8 | C#Cc1c(F)ccc2cc(O)cc(-c3ncc4c(N5CC6CCC(C5)N6)nc(OC[C@@H]5CCCN5CCC5CCC6(CC5)CCN(C(=O)c5ccc(Cl)c(N7CCC(=O)NC7=O)c5)CC6)nc4c3F)c12 [Example 32, 1-(5-(9-(2-((S)-2-(((4-(3,8-diazabicyclo[3.2.1]octan-3-yl)-7-(8-ethynyl-7-fluoro-3-hydroxynaphthalen-1-yl)-8-fluoropyrido[4,3-d]pyrimidin-2-yl)oxy)methyl)pyrrolidin-1-yl)ethyl)-3-azaspiro[5.5]undecane-3-carbonyl)-2-chlorophenyl)dihydropyrimidine-2,4(1H,3H)-dione] | 5.00 to 6.00 | 5.00 to 6.00 | 6.00 to 6.30 | 5.00 to 6.00
9 | C#Cc1c(F)ccc2cc(O)cc(-c3ncc4c(N5CC6CCC(C5)N6)nc(OCC5(CN6CCN(CCC7CCN(C(=O)c8ccc(Cl)c(N9CCC(=O)NC9=O)c8)CC7)CC6)CC5)nc4c3F)c12 [Example 3, 1-(5-(4-(2-(4-((1-(((4-(3,8-diazabicyclo[3.2.1]octan-3-yl)-7-(8-ethynyl-7-fluoro-3-hydroxynaphthalen-1-yl)-8-fluoropyrido[4,3-d]pyrimidin-2-yl)oxy)methyl)cyclopropyl)methyl)piperazin-1-yl)ethyl)piperidine-1-carbonyl)-2-chlorophenyl)dihydropyrimidine-2,4(1H,3H)-dione] | 7.00 to 7.30 | ≥ 7.30 | ≥ 7.30 | 5.00 to 6.00
10 | C#Cc1c(F)ccc2cc(O)cc(-c3ncc4c(N5CC6CCC(C5)N6)nc(OCC5(CN6CCN(CC7CCC8(CC7)CCN(C(=O)c7ccc(C)c(N9CCC(=O)NC9=O)c7)CC8)CC6)CC5)nc4c3F)c12 [Example 36, 1-(5-(9-((4-((1-(((4-(3,8-diazabicyclo[3.2.1]octan-3-yl)-7-(8-ethynyl-7-fluoro-3-hydroxynaphthalen-1-yl)-8-fluoropyrido[4,3-d]pyrimidin-2-yl)oxy)methyl)cyclopropyl)methyl)piperazin-1-yl)methyl)-3-azaspiro[5.5]undecane-3-carbonyl)-2-methylphenyl)dihydropyrimidine-2,4(1H,3H)-dione] | ≥ 7.30 | ≥ 7.30 | ≥ 7.30 | ≥ 7.30
11 | CCc1cccc2cc(O)cc(-c3ncc4c(N5CC6CCC(C5)N6)nc(OCC5(CN6CCN(CC7CCC8(CC7)CCN(C(=O)c7ccc(OC)c(N9CCC(=O)NC9=O)c7)CC8)CC6)CC5)nc4c3F)c12 [Example 20, 1-(5-(9-((4-((1-(((4-(3,8-diazabicyclo[3.2.1]octan-3-yl)-7-(8-ethyl-3-hydroxynaphthalen-1-yl)-8-fluoropyrido[4,3-d]pyrimidin-2-yl)oxy)methyl)cyclopropyl)methyl)piperazin-1-yl)methyl)-3-azaspiro[5.5]undecane-3-carbonyl)-2-methoxyphenyl)dihydropyrimidine-2,4(1H,3H)-dione] | ≥ 7.30 | ≥ 7.30 | ≥ 7.30 | ≥ 7.30
